Laboratory results reported in US5593984A, “Cephalosporin derivatives” (Yuhan Corporation, priority 1992, dated 1997).
In brackets after ≈: the same amount, converted by molar mass.

Legend:
Format in all cases: cell-based
Staph. aureus ATCC 6538P = test: MIC by agar dilution, Staph. aureus ATCC 6538P; settings: Staphylococcus aureus, ATCC6538P, 17 h; Staph. aureus ATCC 6538P; agar dilution, Mueller-Hinton agar; read-out: Minimal Inhibitory Concentration (MIC)
Procedure: (§1) These MIC values were determined by agar dilution method: that is, two-fold dilutions of each of the test compounds were made and dispersed in a Mueller-Hinton agar medium; standard test strain which had the 10^6 CFU (Colony Forming Unit) per ml was inoculated on the medium with microplanter (Toyo, Japan), and incubated at 35°-37° C. for 17±1 hours. The structures of Ceftazidime (CAZ) and Cefotaxime (CTX) which are used as control compounds are as follows: [drawing 12]

P. vulgaris NCTC 8313 = test: MIC by agar dilution, P. vulgaris NCTC 8313; settings: Proteus vulgaris, NCTC8313, 17 h; P. vulgaris NCTC 8313; agar dilution, Mueller-Hinton agar; read-out: Minimal Inhibitory Concentration (MIC)
Procedure: as §1

[1] = test system: S. epidermidis ATCC 12228; test: MIC by agar dilution, S. epidermidis ATCC 12228; settings: Staphylococcus epidermidis, ATCC12228, 17 h; S. epidermidis ATCC 12228; agar dilution, Mueller-Hinton agar; read-out: Minimal Inhibitory Concentration (MIC)
Procedure: as §1

Staph. aureus C-57 = test: MIC by agar dilution, Staph. aureus C-57; settings: Staphylococcus aureus, C57, 17 h, Mueller-Hinton agar, read-out: Minimal Inhibitory Concentration (MIC)
Procedure: as §1

E. coli DY-1 = test: MIC by agar dilution, E. coli DY-1; settings: Escherichia coli, DY1, 17 h; E. coli DY-1; agar dilution, Mueller-Hinton agar; read-out: Minimal Inhibitory Concentration (MIC)
Procedure: as §1

E. coli No. 29 = test: MIC by agar dilution, E. coli No. 29; settings: Escherichia coli, 17 h; E. coli No. 29; agar dilution, Mueller-Hinton agar; read-out: Minimal Inhibitory Concentration (MIC)
Procedure: as §1

[2] = test system: Ser. marcescens IFO 12648; test: MIC by agar dilution, Ser. marcescens IFO 12648; settings: Serratia marcescens, IFO12648, 17 h; Ser. marcescens IFO 12648; agar dilution, Mueller-Hinton agar; read-out: Minimal Inhibitory Concentration (MIC)
Procedure: as §1

Ent. aerogenes IFO 12979 = test: MIC by agar dilution, Ent. aerogenes IFO 12979; settings: Klebsiella aerogenes, IFO12979, 17 h, Mueller-Hinton agar, read-out: Minimal Inhibitory Concentration (MIC)
Procedure: as §1

Staph. aureus Smith = test: MIC by agar dilution, Staph. aureus Smith; settings: Staphylococcus aureus, 17 h, Mueller-Hinton agar, read-out: Minimal Inhibitory Concentration (MIC)
Procedure: as §1

[3] = test system: Ps. aeruginosa ATCC 10145; test: MIC by agar dilution, Ps. aeruginosa ATCC 10145; settings: Pseudomonas aeruginosa, ATCC10145, 17 h, Mueller-Hinton agar, read-out: Minimal Inhibitory Concentration (MIC)
Procedure: as §1

Ps. aeruginosa DY-2 = test: MIC by agar dilution, Ps. aeruginosa DY-2; settings: Pseudomonas aeruginosa, DY2, 17 h; Ps. aeruginosa DY-2; agar dilution, Mueller-Hinton agar; read-out: Minimal Inhibitory Concentration (MIC)
Procedure: as §1

K. pneumoniae NCTC 9632 = test: MIC by agar dilution, K. pneumoniae NCTC 9632; settings: Klebsiella pneumoniae, NCTC9632, 17 h; K. pneumoniae NCTC 9632; agar dilution, Mueller-Hinton agar; read-out: Minimal Inhibitory Concentration (MIC)
Procedure: as §1

Prov. stuartii IFO 12930 = test: MIC by agar dilution, Prov. stuartii IFO 12930; settings: Providencia stuartii, IFO12930, 17 h, Mueller-Hinton agar, read-out: Minimal Inhibitory Concentration (MIC)
Procedure: as §1

E. coli NIHJ JC-2 = test: MIC by agar dilution, E. coli NIHJ JC-2; settings: Escherichia coli, NIHJJC2, 17 h; E. coli NIHJ JC-2; agar dilution, Mueller-Hinton agar; read-out: Minimal Inhibitory Concentration (MIC)
Procedure: as §1

Ent. cloacae IFO 13535 = test: MIC by agar dilution, Ent. cloacae IFO 13535; settings: Enterobacter cloacae, IFO13535, 17 h; Ent. cloacae IFO 13535; agar dilution, Mueller-Hinton agar; read-out: Minimal Inhibitory Concentration (MIC)
Procedure: as §1

Staph. aureus C-5113 = test: MIC by agar dilution, Staph. aureus C-5113; settings: Staphylococcus aureus, C5113, 17 h, Mueller-Hinton agar, read-out: Minimal Inhibitory Concentration (MIC)
Procedure: as §1

M. morganii DY-1 = test: MIC by agar dilution, M. morganii DY-1; settings: Morganella morganii, DY1, 17 h; M. morganii DY-1; agar dilution, Mueller-Hinton agar; read-out: Minimal Inhibitory Concentration (MIC)
Procedure: as §1

B. subtilis ATCC 6633 = test: MIC by agar dilution, B. subtilis ATCC 6633; settings: Bacillus subtilis, ATCC6633, 17 h; B. subtilis ATCC 6633; agar dilution, Mueller-Hinton agar; read-out: Minimal Inhibitory Concentration (MIC)
Procedure: as §1

[4] = test system: Ps. aeruginosa NCTC 10490; test: MIC by agar dilution, Ps. aeruginosa NCTC 10490; settings: Pseudomonas aeruginosa, NCTC10490, 17 h, Mueller-Hinton agar, read-out: Minimal Inhibitory Concentration (MIC)
Procedure: as §1

Staph. aureus C-5216 = test: MIC by agar dilution, Staph. aureus C-5216; settings: Staphylococcus aureus, C5216, 17 h, Mueller-Hinton agar, read-out: Minimal Inhibitory Concentration (MIC)
Procedure: as §1

SMILES	MIC (Staph. aureus ATCC 6538P) [µg/mL]	MIC (P. vulgaris NCTC 8313) [µg/mL]	MIC [1] [µg/mL]	MIC (Staph. aureus C-57) [µg/mL]	MIC (E. coli DY-1) [µg/mL]	MIC (E. coli No. 29) [µg/mL]	MIC [2] [µg/mL]	MIC (Ent. aerogenes IFO 12979) [µg/mL]	MIC (Staph. aureus Smith) [µg/mL]	MIC [3] [µg/mL]	MIC (Ps. aeruginosa DY-2) [µg/mL]	MIC (K. pneumoniae NCTC 9632) [µg/mL]	MIC (Prov. stuartii IFO 12930) [µg/mL]	MIC (E. coli NIHJ JC-2) [µg/mL]	MIC (Ent. cloacae IFO 13535) [µg/mL]	MIC (Staph. aureus C-5113) [µg/mL]	MIC (M. morganii DY-1) [µg/mL]	MIC (B. subtilis ATCC 6633) [µg/mL]	MIC [4] [µg/mL]	MIC (Staph. aureus C-5216) [µg/mL]
CO/N=C(\C(=O)N[C@@H]1C(=O)N2C(C(=O)[O-])=C(C[n+]3ccn4cccc4c3C)CS[C@H]12)c1nsc(N)n1 [Ex. 57, 7-β-[(Z)-2-(5-amino-1,2,4-thiadiazol-3-yl)-2-methoxyiminoacetamido]-3-(1-methylpyrrolo[1,2-a]-pyrazinium-2-yl)methyl-3-cephem-4-carboxylate]	0.1 (≈ 0.189 µM)	0.05 (≈ 0.0946 µM)	0.05 (≈ 0.0946 µM)	1.56 (≈ 2.95 µM)	0.025 (≈ 0.0473 µM)	0.025 (≈ 0.0473 µM)	0.025 (≈ 0.0473 µM)	0.025 (≈ 0.0473 µM)	0.78 (≈ 1.48 µM)	0.78 (≈ 1.48 µM)	1.56 (≈ 2.95 µM)	0.012 (≈ 0.0227 µM)	0.012 (≈ 0.0227 µM)	0.012 (≈ 0.0227 µM)	0.1 (≈ 0.189 µM)	0.2 (≈ 0.378 µM)	0.05 (≈ 0.0946 µM)	0.2 (≈ 0.378 µM)	0.2 (≈ 0.378 µM)	0.39 (≈ 0.738 µM)
NCCSc1ccc2c[n+](CC3=C(C(=O)[O-])N4C(=O)C(NC(=O)C(=NOCF)c5csc(N)n5)C4SC3)ccn12 (stereo not drawn) [Ex. 29, 7-β-[(Z)-2-(2-aminothiazol-4-yl)2-fluoromethoxyiminoacetamido]-3-[6-(2-aminoethylthio)pyrrolo[1,2-a]pyrazinium-2-yl]methyl-3-cephem-4-carboxylat]	0.2 (≈ 0.33 µM)	≤ 0.006	0.05 (≈ 0.0824 µM)	25 (≈ 41.2 µM)	≤ 0.006	≤ 0.006	≤ 0.006	≤ 0.006	0.78 (≈ 1.29 µM)	0.78 (≈ 1.29 µM)	6.25 (≈ 10.3 µM)	≤ 0.006	≤ 0.006	≤ 0.006	0.012 (≈ 0.0198 µM)	0.78 (≈ 1.29 µM)	≤ 0.006	0.05 (≈ 0.0824 µM)	0.2 (≈ 0.33 µM)	0.78 (≈ 1.29 µM)
CC(C)(ON=C(C(=O)NC1C(=O)N2C(C(=O)[O-])=C(C[n+]3ccn4cccc4c3)CSC12)c1csc(N)n1)C(=O)O (stereo not drawn) [Ex. 2, 7-β-[(Z)-2-(2-aminothiazol-4-yl)-2-(2-carboxyprop-2-oxyimino)acetamido]-3-(pyrrolo[1,2-a]pyrazinium-2-yl)methyl-3-cephem-4-carboxylate]	3.13 (≈ 5.34 µM)	≤ 0.006	1.56 (≈ 2.66 µM)	100 (≈ 171 µM)	0.05 (≈ 0.0854 µM)	0.1 (≈ 0.171 µM)	0.1 (≈ 0.171 µM)	0.025 (≈ 0.0427 µM)	12.5 (≈ 21.3 µM)	0.78 (≈ 1.33 µM)	6.25 (≈ 10.7 µM)	0.2 (≈ 0.342 µM)	0.025 (≈ 0.0427 µM)	0.2 (≈ 0.342 µM)	3.13 (≈ 5.34 µM)	25 (≈ 42.7 µM)	0.05 (≈ 0.0854 µM)	3.13 (≈ 5.34 µM)	0.39 (≈ 0.666 µM)	12.5 (≈ 21.3 µM)
Nc1nc(C(=NOCF)C(=O)NC2C(=O)N3C(C(=O)[O-])=C(C[n+]4ccn5c(SCCO)ccc5c4)CSC23)cs1 (stereo not drawn) [Ex. 10, 7-β-[(Z)-2-(2-aminothiazol-4-yl)-2-fluoromethoxyiminoacetamido]-3-[6-(2-hydroxyethylthio)pyrrolo[1,2-a]pyrazinium-2-yl]methyl-3-cephem-4-carboxylate]	0.1 (≈ 0.165 µM)	0.012 (≈ 0.0197 µM)	0.05 (≈ 0.0823 µM)	12.5 (≈ 20.6 µM)	≤ 0.006	≤ 0.006	0.012 (≈ 0.0197 µM)	0.05 (≈ 0.0823 µM)	0.1 (≈ 0.165 µM)	0.78 (≈ 1.28 µM)	3.13 (≈ 5.15 µM)	0.025 (≈ 0.0411 µM)	≤ 0.006	0.025 (≈ 0.0411 µM)	0.2 (≈ 0.329 µM)	0.39 (≈ 0.642 µM)	0.012 (≈ 0.0197 µM)	0.1 (≈ 0.165 µM)	0.2 (≈ 0.329 µM)	0.78 (≈ 1.28 µM)
CON=C(C(=O)NC1C(=O)N2C(C(=O)[O-])=C(C[n+]3ccn4c(SCCO)ccc4c3)CSC12)c1csc(N)n1 (stereo not drawn) [Ex. 8, 7-β-[(Z)-2-(2-aminothiazol-4-yl)-2-methoxyiminoacetamido]-3-[6-(2-hydroxyethylthio)pyrrolo[1,2-a]pyrazinium-2-yl]methyl-3-cephem-4-carboxylate]	0.1 (≈ 0.17 µM)	0.012 (≈ 0.0203 µM)	0.1 (≈ 0.17 µM)	25 (≈ 42.4 µM)	≤ 0.006	≤ 0.006	0.012 (≈ 0.0203 µM)	0.012 (≈ 0.0203 µM)	0.2 (≈ 0.339 µM)	0.78 (≈ 1.32 µM)	3.13 (≈ 5.31 µM)	0.012 (≈ 0.0203 µM)	≤ 0.006	0.012 (≈ 0.0203 µM)	1.56 (≈ 2.65 µM)	0.39 (≈ 0.661 µM)	0.025 (≈ 0.0424 µM)	0.1 (≈ 0.17 µM)	0.2 (≈ 0.339 µM)	0.78 (≈ 1.32 µM)
CO/N=C(\C(=O)N[C@@H]1C(=O)N2C(C(=O)[O-])=C(C[n+]3ccn4ccc(CO)c4c3)CS[C@H]12)c1nsc(N)n1 [Ex. 55, 7-β-[(Z)-2-(5-amino-1,2,4-thiadiazol-3-yl)-2-methoxyiminoacetamido]-3-(8-hydroxymethylpyrrolo[1,2-a]-pyrazinium-2-yl)methyl-3-cephem-4-carboxylate]	0.78 (≈ 1.43 µM)	0.05 (≈ 0.0918 µM)	0.2 (≈ 0.367 µM)	25 (≈ 45.9 µM)	0.012 (≈ 0.022 µM)	≤ 0.006	0.025 (≈ 0.0459 µM)	0.025 (≈ 0.0459 µM)	1.56 (≈ 2.86 µM)	0.78 (≈ 1.43 µM)	1.56 (≈ 2.86 µM)	0.025 (≈ 0.0459 µM)	≤ 0.006	0.012 (≈ 0.022 µM)	0.1 (≈ 0.184 µM)	6.25 (≈ 11.5 µM)	0.025 (≈ 0.0459 µM)	0.1 (≈ 0.184 µM)	0.1 (≈ 0.184 µM)	3.13 (≈ 5.75 µM)
CON=C(C(=O)NC1C(=O)N2C(C(=O)[O-])=C(C[n+]3ccn4c(Cl)ccc4c3)CSC12)c1csc(N)n1 (stereo not drawn) [Ex. 11, 7-β-[(Z)-2-(2-aminothiazol-4-yl)-2-methoxyiminoacetamido]-3-(6-chloropyrrolo[1,2-a]pyrazinium-2-yl)methyl-3-cephem-4-carboxylate]	0.2 (≈ 0.365 µM)	≤ 0.006	0.025 (≈ 0.0456 µM)	12.5 (≈ 22.8 µM)	≤ 0.006	≤ 0.006	0.012 (≈ 0.0219 µM)	≤ 0.006	0.39 (≈ 0.712 µM)	0.78 (≈ 1.42 µM)	3.13 (≈ 5.71 µM)	≤ 0.006	≤ 0.006	≤ 0.006	0.05 (≈ 0.0912 µM)	0.78 (≈ 1.42 µM)	≤ 0.006	0.1 (≈ 0.182 µM)	0.39 (≈ 0.712 µM)	0.78 (≈ 1.42 µM)
CO/N=C(\C(=O)N[C@@H]1C(=O)N2C(C(=O)[O-])=C(C[n+]3ccn4c(Cl)ccc4c3C)CS[C@H]12)c1csc(N)n1 [Ex. 45, 7-β-[(Z)-2-(2-aminothiazol-4-yl)-2-methoxyiminoacetamido]-3-(6-chloro-1-methylpyrrolo[1,2-a]pyrazinium-2-yl)methyl-3-cephem-4-carboxylate]	0.1 (≈ 0.178 µM)	≤ 0.006	0.012 (≈ 0.0214 µM)	6.25 (≈ 11.1 µM)	0.012 (≈ 0.0214 µM)	0.012 (≈ 0.0214 µM)	0.025 (≈ 0.0445 µM)	0.025 (≈ 0.0445 µM)	0.39 (≈ 0.694 µM)	3.13 (≈ 5.57 µM)	6.25 (≈ 11.1 µM)	0.012 (≈ 0.0214 µM)	≤ 0.006	0.025 (≈ 0.0445 µM)	0.05 (≈ 0.089 µM)	0.39 (≈ 0.694 µM)	0.012 (≈ 0.0214 µM)	0.1 (≈ 0.178 µM)	0.39 (≈ 0.694 µM)	0.78 (≈ 1.39 µM)
